How the values were obtained:
[1] = molecular target: Serine/threonine-protein kinase Chk2 (Homo sapiens) (UniProt O96017); assay: Selectivity interaction (ActivX KiNativ screen (kinase selectivity in THP-1 cell lysates)) EUB0000639a CHEK2; format: subcellular; conditions: lysate
[2] = molecular target: Homeodomain-interacting protein kinase 1 (Homo sapiens, UniProt Q86Z02); assay: Selectivity interaction (KinomeScan (DiscoverX)) EUB0000695a HIPK1; conditions: at 100 nM
[3] = molecular target: Serine/threonine-protein kinase Nek7 (Homo sapiens) (UniProt Q8TDX7); assay: Selectivity interaction (KinomeScan (DiscoverX)) EUB0000595a NEK7; conditions: at 10 µM
Sequence of Serine/threonine-protein kinase Nek7 (Homo sapiens) (Q8TDX7 whole entry, looked up): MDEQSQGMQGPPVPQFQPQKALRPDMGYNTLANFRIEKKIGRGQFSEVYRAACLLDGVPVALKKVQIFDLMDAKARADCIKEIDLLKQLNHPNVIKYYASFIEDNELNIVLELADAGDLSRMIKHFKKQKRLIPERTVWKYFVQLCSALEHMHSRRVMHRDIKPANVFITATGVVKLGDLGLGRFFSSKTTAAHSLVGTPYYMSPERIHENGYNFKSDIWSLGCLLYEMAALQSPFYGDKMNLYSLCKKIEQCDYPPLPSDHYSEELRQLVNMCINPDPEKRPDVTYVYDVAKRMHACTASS

[4] = molecular target: STE20-like serine/threonine-protein kinase (Homo sapiens, UniProt Q9H2G2); assay: Selectivity interaction (KinomeScan (DiscoverX)) EUB0001079a SLK; conditions: at 1 µM
[5] = tested on: Hepatocyte growth factor receptor (Homo sapiens), P08581 [D1228H]; assay: (§1) Selectivity interaction (ProQinase) EUB0000171b MET
Sequence of Hepatocyte growth factor receptor (Homo sapiens), P08581 [D1228H] (P08581 whole entry D1228H): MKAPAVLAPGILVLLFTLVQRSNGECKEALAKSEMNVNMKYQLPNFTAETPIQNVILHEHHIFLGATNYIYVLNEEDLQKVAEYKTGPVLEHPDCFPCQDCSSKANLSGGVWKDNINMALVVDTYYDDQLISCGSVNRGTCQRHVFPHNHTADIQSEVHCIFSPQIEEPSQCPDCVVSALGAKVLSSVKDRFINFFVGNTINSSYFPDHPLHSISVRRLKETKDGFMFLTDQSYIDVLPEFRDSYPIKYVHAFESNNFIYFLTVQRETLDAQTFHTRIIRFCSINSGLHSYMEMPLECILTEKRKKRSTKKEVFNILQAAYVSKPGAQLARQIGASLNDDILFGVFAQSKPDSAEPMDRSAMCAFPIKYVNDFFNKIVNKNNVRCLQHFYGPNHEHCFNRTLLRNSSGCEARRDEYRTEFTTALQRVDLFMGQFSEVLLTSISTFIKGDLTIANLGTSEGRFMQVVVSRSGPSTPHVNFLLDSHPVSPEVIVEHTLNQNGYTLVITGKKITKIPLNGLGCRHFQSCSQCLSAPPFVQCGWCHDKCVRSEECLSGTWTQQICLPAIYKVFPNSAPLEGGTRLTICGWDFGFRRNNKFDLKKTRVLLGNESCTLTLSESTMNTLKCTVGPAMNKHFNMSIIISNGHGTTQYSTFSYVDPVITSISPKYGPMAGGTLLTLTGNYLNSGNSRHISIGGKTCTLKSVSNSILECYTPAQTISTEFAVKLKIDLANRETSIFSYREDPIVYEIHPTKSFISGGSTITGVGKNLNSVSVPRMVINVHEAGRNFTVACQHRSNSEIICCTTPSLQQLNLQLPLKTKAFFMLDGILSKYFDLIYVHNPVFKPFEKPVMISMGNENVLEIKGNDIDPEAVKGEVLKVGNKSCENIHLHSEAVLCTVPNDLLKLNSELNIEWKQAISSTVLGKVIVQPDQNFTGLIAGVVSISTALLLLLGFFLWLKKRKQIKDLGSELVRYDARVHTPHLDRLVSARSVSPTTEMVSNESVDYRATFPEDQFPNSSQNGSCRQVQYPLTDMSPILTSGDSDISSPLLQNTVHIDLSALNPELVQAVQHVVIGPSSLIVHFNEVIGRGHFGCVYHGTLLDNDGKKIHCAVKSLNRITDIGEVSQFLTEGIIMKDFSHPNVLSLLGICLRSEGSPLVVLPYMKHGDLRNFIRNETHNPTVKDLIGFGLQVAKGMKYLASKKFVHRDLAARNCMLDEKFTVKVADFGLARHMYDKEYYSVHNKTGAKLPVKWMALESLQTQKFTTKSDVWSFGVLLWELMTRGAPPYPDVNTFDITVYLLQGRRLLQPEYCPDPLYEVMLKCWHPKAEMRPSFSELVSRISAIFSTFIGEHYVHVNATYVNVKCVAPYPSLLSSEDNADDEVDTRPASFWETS

[6] = tested on: Hepatocyte growth factor receptor (Homo sapiens), P08581 [D1228N]; assay: as §1
[7] = tested on: Hepatocyte growth factor receptor (Homo sapiens), P08581 [F1200I]; assay: as §1
[8] = tested on: Hepatocyte growth factor receptor (Homo sapiens), P08581 [M1250T]; assay: as §1
Sequence of Hepatocyte growth factor receptor (Homo sapiens), P08581 [M1250T] (P08581 whole entry M1250T): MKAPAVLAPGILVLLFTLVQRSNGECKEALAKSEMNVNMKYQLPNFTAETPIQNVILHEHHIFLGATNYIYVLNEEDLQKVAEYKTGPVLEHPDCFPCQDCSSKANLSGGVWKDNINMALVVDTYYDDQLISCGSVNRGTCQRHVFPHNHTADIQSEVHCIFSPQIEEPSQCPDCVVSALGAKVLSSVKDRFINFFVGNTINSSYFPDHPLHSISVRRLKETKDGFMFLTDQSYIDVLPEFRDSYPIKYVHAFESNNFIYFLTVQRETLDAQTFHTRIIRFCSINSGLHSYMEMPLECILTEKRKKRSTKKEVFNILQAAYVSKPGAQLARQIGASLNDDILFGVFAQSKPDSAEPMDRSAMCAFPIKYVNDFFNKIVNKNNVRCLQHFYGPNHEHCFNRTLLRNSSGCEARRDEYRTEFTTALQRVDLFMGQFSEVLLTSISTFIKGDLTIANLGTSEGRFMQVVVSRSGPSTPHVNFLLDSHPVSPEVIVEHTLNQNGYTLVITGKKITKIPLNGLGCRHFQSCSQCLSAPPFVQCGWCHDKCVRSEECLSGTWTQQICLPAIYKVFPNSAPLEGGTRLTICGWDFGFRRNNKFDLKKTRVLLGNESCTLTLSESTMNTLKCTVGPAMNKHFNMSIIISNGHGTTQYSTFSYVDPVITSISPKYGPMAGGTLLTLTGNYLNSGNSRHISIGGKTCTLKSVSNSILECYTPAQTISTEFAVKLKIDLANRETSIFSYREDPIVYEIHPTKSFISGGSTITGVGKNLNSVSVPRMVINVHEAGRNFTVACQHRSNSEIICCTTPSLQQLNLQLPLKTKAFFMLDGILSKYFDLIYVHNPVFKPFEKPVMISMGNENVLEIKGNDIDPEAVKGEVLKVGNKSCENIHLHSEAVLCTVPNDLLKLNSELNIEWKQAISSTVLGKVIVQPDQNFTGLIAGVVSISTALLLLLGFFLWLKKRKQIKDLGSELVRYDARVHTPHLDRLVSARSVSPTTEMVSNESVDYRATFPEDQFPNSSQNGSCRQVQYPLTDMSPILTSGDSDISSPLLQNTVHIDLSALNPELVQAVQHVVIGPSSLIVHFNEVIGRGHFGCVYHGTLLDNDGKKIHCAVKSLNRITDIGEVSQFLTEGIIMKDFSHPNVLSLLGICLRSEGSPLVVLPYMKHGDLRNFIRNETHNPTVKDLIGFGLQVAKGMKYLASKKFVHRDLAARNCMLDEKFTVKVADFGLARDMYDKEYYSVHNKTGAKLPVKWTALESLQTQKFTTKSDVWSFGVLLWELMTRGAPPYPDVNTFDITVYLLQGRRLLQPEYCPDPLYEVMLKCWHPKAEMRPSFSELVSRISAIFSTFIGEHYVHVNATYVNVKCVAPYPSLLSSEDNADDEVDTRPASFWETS

[9] = tested on: Hepatocyte growth factor receptor (Homo sapiens), P08581 [Y1230A]; assay: as §1
[10] = tested on: Hepatocyte growth factor receptor (Homo sapiens), P08581 [Y1230C]; assay: as §1
[11] = tested on: Hepatocyte growth factor receptor (Homo sapiens), P08581 [Y1230D]; assay: as §1
Sequence of Hepatocyte growth factor receptor (Homo sapiens), P08581 [Y1230D] (P08581 whole entry Y1230D): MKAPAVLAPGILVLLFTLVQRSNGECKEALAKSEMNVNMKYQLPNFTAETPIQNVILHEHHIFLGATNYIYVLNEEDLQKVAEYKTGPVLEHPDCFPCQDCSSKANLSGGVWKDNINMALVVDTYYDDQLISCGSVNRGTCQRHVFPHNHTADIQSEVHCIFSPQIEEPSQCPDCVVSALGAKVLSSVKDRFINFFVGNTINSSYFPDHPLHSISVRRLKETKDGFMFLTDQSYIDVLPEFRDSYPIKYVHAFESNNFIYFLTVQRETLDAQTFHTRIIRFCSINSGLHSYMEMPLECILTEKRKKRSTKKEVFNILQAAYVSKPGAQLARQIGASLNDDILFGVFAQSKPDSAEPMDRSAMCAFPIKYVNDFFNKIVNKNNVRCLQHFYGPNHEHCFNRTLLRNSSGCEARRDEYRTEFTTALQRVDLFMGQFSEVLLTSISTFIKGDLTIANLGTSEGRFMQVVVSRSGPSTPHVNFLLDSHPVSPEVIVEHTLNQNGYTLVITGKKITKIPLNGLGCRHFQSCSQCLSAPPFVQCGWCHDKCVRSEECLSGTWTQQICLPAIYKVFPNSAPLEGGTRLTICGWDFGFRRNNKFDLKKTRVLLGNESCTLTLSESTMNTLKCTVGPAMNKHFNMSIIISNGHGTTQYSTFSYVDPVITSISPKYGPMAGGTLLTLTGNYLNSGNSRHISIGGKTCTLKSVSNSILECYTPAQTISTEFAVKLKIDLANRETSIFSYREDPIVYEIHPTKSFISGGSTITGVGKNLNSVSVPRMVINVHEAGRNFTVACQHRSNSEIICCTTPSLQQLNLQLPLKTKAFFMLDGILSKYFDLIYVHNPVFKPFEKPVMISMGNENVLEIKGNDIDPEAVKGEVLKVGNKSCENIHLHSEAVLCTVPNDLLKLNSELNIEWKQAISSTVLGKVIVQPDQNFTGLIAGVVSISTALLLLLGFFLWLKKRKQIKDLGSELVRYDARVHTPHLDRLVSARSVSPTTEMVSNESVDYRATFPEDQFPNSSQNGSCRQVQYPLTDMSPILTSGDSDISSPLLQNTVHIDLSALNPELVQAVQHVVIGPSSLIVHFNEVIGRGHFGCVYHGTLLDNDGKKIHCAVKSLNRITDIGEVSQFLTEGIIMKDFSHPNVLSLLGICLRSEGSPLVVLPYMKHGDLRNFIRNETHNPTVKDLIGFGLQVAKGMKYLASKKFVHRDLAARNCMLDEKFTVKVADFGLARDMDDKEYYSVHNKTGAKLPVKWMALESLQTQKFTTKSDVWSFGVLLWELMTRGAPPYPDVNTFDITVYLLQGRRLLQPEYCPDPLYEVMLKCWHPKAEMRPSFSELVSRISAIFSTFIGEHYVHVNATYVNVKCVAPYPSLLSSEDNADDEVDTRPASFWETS

[12] = tested on: Hepatocyte growth factor receptor (Homo sapiens), P08581 [Y1230H]; assay: as §1
[13] = tested on: Hepatocyte growth factor receptor (Homo sapiens), P08581 [Y1235D]; assay: as §1
[14] = molecular target: Hepatocyte growth factor receptor (Homo sapiens, UniProt P08581); assay: as §1
[15] = molecular target: T1, Serine/threonine-protein kinase 3 (Homo sapiens) (UniProt Q13188); assay: Selectivity interaction (KinomeScan (DiscoverX)) EUB0000092b STK3; conditions: at 10 µM
T1 sequence (whole entry): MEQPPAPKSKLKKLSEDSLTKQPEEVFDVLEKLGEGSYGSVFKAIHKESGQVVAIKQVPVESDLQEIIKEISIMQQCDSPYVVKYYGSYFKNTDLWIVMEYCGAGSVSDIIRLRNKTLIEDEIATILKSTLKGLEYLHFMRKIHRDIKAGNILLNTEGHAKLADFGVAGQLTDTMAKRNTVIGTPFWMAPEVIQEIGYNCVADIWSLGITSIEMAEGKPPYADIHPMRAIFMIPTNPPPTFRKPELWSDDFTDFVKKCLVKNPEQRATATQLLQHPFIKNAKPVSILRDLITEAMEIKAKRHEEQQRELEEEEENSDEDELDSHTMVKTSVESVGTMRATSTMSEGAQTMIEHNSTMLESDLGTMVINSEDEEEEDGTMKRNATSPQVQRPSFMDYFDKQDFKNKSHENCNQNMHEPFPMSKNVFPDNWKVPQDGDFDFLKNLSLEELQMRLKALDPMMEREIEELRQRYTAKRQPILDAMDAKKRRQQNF

[16] = molecular target: T2, Serine/threonine-protein kinase D3 (Homo sapiens) (UniProt O94806); assay: Selectivity interaction (KinomeScan (DiscoverX)) EUB0000092b PRKD3; conditions: at 10 µM
T2 sequence (whole entry): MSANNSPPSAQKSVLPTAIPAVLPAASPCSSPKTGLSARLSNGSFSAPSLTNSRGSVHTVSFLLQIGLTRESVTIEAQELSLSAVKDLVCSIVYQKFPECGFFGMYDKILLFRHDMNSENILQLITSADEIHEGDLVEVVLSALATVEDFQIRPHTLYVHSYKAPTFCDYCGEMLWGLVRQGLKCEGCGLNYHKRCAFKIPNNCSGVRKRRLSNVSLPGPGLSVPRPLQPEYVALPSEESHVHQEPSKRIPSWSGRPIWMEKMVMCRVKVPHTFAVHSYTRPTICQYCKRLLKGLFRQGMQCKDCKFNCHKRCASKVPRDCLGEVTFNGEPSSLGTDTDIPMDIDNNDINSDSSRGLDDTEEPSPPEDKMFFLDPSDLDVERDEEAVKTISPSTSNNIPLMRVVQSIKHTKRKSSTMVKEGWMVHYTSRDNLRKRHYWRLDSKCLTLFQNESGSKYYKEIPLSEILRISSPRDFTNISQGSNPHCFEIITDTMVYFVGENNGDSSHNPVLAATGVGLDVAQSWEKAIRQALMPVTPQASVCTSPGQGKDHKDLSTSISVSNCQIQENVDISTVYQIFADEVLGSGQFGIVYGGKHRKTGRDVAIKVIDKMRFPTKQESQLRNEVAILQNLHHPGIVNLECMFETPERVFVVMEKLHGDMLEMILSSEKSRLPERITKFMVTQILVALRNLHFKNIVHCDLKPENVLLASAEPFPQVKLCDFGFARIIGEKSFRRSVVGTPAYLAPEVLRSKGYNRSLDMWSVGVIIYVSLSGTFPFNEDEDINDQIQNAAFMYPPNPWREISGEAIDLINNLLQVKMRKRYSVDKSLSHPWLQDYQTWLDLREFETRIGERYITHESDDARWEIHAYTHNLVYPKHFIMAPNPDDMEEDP

[17] = molecular target: Receptor-type tyrosine-protein kinase FLT3 (Homo sapiens) (UniProt P36888); assay: (§2) Selectivity interaction (KinomeScan (DiscoverX)) EUB0000045b FLT3
[18] = tested on: Receptor-type tyrosine-protein kinase FLT3 (Homo sapiens), P36888 [UNDEFINED MUTATION]; assay: as §2
[19] = molecular target: Angiopoietin-1 receptor (Homo sapiens) (UniProt Q02763); assay: Selectivity interaction (SelectScreen profiling (Invitrogen)) EUB0000607a TEK; conditions: at 2 µM

Sequence of Serine/threonine-protein kinase Chk2 (Homo sapiens) (O96017 whole entry): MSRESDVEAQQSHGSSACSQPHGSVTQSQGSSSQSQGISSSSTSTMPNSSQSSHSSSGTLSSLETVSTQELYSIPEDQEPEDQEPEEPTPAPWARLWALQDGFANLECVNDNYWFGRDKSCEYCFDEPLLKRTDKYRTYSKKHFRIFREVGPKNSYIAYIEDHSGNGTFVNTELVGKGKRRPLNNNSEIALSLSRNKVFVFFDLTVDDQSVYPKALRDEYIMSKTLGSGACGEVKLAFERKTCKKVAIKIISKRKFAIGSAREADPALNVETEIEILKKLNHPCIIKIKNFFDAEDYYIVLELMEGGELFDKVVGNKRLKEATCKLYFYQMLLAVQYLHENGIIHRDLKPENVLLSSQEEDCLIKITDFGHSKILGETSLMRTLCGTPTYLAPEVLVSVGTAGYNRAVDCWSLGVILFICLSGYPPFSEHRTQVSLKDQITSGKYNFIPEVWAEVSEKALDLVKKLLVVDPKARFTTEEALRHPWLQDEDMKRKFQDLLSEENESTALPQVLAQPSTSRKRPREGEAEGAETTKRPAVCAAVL

For CC[C@@H]1[C@H](F)C(=O)N[C@@H]1COc1nccc2cc(C(N)=O)c(OC)cc12 [ZIMLOVISERTIB], the % of inhibition ([1]; at 0.01 µM) was 4.5%, the % of inhibition ([1]; at 0.04 µM) was 8.5% and the % of inhibition ([1]; at 0.2 µM) was 3.8%. For the same compound, the % of inhibition ([1]; at 1 µM) was 30.1% and the % of inhibition ([1]; at 5 µM) was 58.9%.
With Cc1cc(F)c(C(=O)Nc2cccc(-c3nncn3C(C)C)n2)cc1-n1cnc(C2CC2)c1 the % of control [2] was 100%.
COCC(=O)NC/C=C/c1ccc2ncnc(Nc3ccc(Oc4ccc(C)nc4)c(C)c3)c2c1 [CP-724714] showed a % of control [3] of 73%.
Work on Nc1cnc(N2CCc3cc(S(=O)(=O)Nc4c(F)cc(Cl)cc4F)cc(N4CCCC4=O)c32)nc1 [TP-020n] yielded a % of control [4] of 100%.
Compound C=CC(=O)Nc1cccc(C(=O)Nc2ccc(Nc3cc(-c4[nH]c(SC)nc4C)ccn3)cc2)c1 has a % of control ([5]; at 1 µM) of 76%, a % of control ([5]; at 5 µM) of 65% and a % of control ([6]; at 1 µM) of 89%. It also gave a % of control ([6]; at 5 µM) of 74%, a % of control ([7]; at 1 µM) of 81% and a % of control ([7]; at 5 µM) of 59%. The % of control ([8]; at 1 µM) was 88%, the % of control ([8]; at 5 µM) was 65% and the % of control ([9]; at 1 µM) was 97%. The % of control ([9]; at 5 µM) was 85%, the % of control ([10]; at 1 µM) was 90% and the % of control ([10]; at 5 µM) was 76%. The % of control ([11]; at 1 µM) was 88%, the % of control ([11]; at 5 µM) was 73% and the % of control ([12]; at 1 µM) was 92%. It also gave a % of control ([12]; at 5 µM) of 72%, a % of control ([13]; at 1 µM) of 105% and a % of control ([13]; at 5 µM) of 86%. It also gave a % of control ([14]; at 1 µM) of 93% and a % of control ([14]; at 5 µM) of 78%.
CCC(=O)N1CCN(c2ccc(-n3c(=O)ccc4cnc5ccc(-c6cnc7ccccc7c6)cc5c43)cc2C(F)(F)F)CC1 showed a % of control [15] of 24% and a % of control [16] of 100%.
With C=CC(=O)Nc1cc(-n2c(=O)ccc3cnc4ccc(-c5ccc(NS(C)(=O)=O)cc5)cc4c32)ccc1C the % of control ([17]; at 1 µM) was 80%, the % of control ([17]; at 10 µM) was 81% and the % of control ([18]; at 1 µM) was 99%. It also gave a % of control ([18]; at 10 µM) of 100%.
With CNC(=O)Nc1ccc(-c2nc(N3CC4CCC(C3)O4)c3cnn(C4CCC5(CC4)OCCO5)c3n2)cc1 the % of inhibition [19] was 10%.

From ChEMBL document CHEMBL5465560, “Selectivity Literature for EUbOPEN Chemogenomic Library” (2024)
